“And” between values parts separate entries of the source, which are not always exact repeats. Identical values can stand only once.
Experiments:
[1] = test system: human multiple myeloma cells NCI-H929 xenografts; test: Tumor inhibitory effect on multiple myeloma cells NCI-H929 xenografts in nude mice; type: in vivo, BALB/c nude mouse; details: for IR By RTV % / IR By TW % / RTV (X ± SD) / TW (X ± SD, g) / Bw (X ± SD, g) end / TV (X ± SD, mm^3) End / Bw (X ± SD, g) initial / TV (X ± SD, mm^3) initial: once every 4 days, intraperitoneal; for IR By RTV % / IR By TW % / RTV (X ± SD) / TW (X ± SD, g): 11th day; for Bw (X ± SD, g) end / TV (X ± SD, mm^3) End: end (11th day after inoculation)
Description: Multiple myeloma cells were routinely passaged in vitro, inoculated in 40 6-7-week-old BALB/c nude mouse, each mouse was subcutaneously injected human multiple myeloma cells NCI-H929 at its right axillary. Weighed after two days. The mice were randomly divided into five groups, eight in each group. Each group was dosed as follows: • i. physiological saline control group • ii. Topotecan positive control group, 2 mg/kg, once every 4 days, intraperitoneal injection • iii. WQ1001, high-dose group, 35 mg/kg, once every 4 days, intraperitoneal injection • iv. WQ1001, middle dose group, 25 mg/kg, once every 4 days, intraperitoneal injectionv. v. WQ1001, low dose group, 18 mg/kg, once every 4 days, intraperitoneal injection
Body weight(BW) as well as long diameter and short diameter of tumors were measured every two days. Tumor volume was calculated according to the Equation 1. On the 11th day after inoculation, the mice were weighed, long diameter and short diameter of tumors were measured, and relative tumor volume (RTV) was calculated according to Equation 2. Mice were sacrificed by cervical dislocation and the tumor mass was stripped and weighed. Inhibition rate (IR) was calculated according to the Equation 3. RTV and tumor weight (TW) for each group were analyzed through T-test.

[2] = Plasma concentration of WQ1001 (HM 910) and its metabolite CPT in rats after intravenous injection; type: in vivo; details: for HM 910 Plasma / HM 910 Plasma (ng/mL): individual rats 1-6
Description: Intravenous administration in rats: six healthy SD rats, weighing 180˜220 g, three males and three females. Fasting for 12 h before dosing, free access to water. 20 mg/kg of HM 910 was administrated by intravenous bolus injection though caudal vein of the rats, with dose-volume volume of 1.0 mL/kg. Blooding 0.25 mL from the animal through the jugular vein, anti-clotting with heparin sodium, adding 0.2% formic acid within the anticoagulant. Blooding at following time points: 5 min, 15 min, 30 min, 45 min, 1 h, 1.5 h, 2 h, 2.5 h, 3 h, 4 h before and after administration. Blood samples were placed on ice after blooding and the plasma was centrifugal separated within 30 minutes (centrifugation conditions: 8000 r/min, 6 minutes, room temperature). The plasma collected was stored at −80° C. for analysis.

[3] = Water-solubility test of compounds of Formula II and Formula IV; type: physicochemical; details: the C-20 phosphite salt (Formula II) itself, read-out: Water-solubility of Comp of Formula II
[4] = test system: S1 and S1-M1-80 (characteristic expression of ABCG2/BCRP); test: Anti-drug resistance test (MTT, resistance index); type: cell-based; details: S1-M1-80 (ABCG2/BCRP) versus S1 cells, 72 h, from IC50
Description: Logarithmic growth phase S1 and S1-M1-80 (characteristic expression of ABCG2/BCRP) were prepared as cell suspension of 2.5×10^4 cells/ml and 6×10^4 cells/ml, and were seeded in into 96-well plates with 0.19 ml/well. After incubating in cell incubator for 24 hours at 37° C., 5% CO2, sample solutions in various concentrations were added at 0.01 ml/well. Stroke-physiological saline solution is used as control well. Each treatment is conducted in 3 parallel wells. The drugs were added and incubated additional 72 h hours. And 5 mg/ml of MTT is added at 0.02 ml/well before four hours of the end the incubation. The culture liquid is removed at the end of incubation. Each well was added 0.1 ml of DMSO and OD values were measured at wavelength of 540 nm and reference wavelength of 655 nm. The experiment was repeated three times. Equation 1 is used to calculate cell growth inhibition rate (IR); and Equation 2 is used to calculate resistance index. Bliss method is used to calculate the 50% inhibitory concentration (IC50).

[5] = SD rats, 20 mg/kg HM 910 i.v. bolus, 2.5 hr, 20 mg/kg

**Q.** What does the source list for `CC[C@@]1(O[PH](=O)[O-])C(=O)OCc2c1cc1n(c2=O)Cc2cc3ccccc3nc2-1.[Na+]` [WQ1001]?
**A.** anti-tumor effect on NCI-H929 xenografts in nude mice (in words) ([1]; 25 mg/kg): significant anti-tumor effect; IR By RTV % ([1]; HM910 l-dose 18 mg/kg): 66.5%; IR By TW % ([1]; HM910 l-dose 18 mg/kg): 72.7%; RTV (X ± SD) ([1]; HM910 l-dose 18 mg/kg): 13.5 ± 11.0; TW (X ± SD, g) ([1]; HM910 l-dose 18 mg/kg): 0.41 ± 0.34 g; Bw (X ± SD, g) end ([1]; HM910 l-dose 18 mg/kg): 19.2 ± 0.9 g; TV (X ± SD, mm^3) End ([1]; HM910 l-dose 18 mg/kg): 653.0 ± 560.4 mm^3; Bw (X ± SD, g) initial ([1]; HM910 l-dose 18 mg/kg): 21.0 ± 1.6 g; TV (X ± SD, mm^3) initial ([1]; HM910 l-dose 18 mg/kg): 48.6 ± 4.9 mm^3; IR By RTV % ([1]; HM910 m-dose 25 mg/kg): 75.7%; IR By TW % ([1]; HM910 m-dose 25 mg/kg): 82.0%; RTV (X ± SD) ([1]; HM910 m-dose 25 mg/kg): 9.80 ± 11.6; TW (X ± SD, g) ([1]; HM910 m-dose 25 mg/kg): 0.27 ± 0.35 g; Bw (X ± SD, g) end ([1]; HM910 m-dose 25 mg/kg): 18.5 ± 0.7 g; TV (X ± SD, mm^3) End ([1]; HM910 m-dose 25 mg/kg): 480.1 ± 570.6 mm^3; Bw (X ± SD, g) initial ([1]; HM910 m-dose 25 mg/kg): 17.3 ± 0.7 g; TV (X ± SD, mm^3) initial ([1]; HM910 m-dose 25 mg/kg): 48.2 ± 7.8 mm^3; IR By RTV % ([1]; HM910 h-dose 35 mg/kg): 86.1%; IR By TW % ([1]; HM910 h-dose 35 mg/kg): 88.2%; RTV (X ± SD) ([1]; HM910 h-dose 35 mg/kg): 5.61 ± 9.74; TW (X ± SD, g) ([1]; HM910 h-dose 35 mg/kg): 0.18 ± 0.36 g; Bw (X ± SD, g) end ([1]; HM910 h-dose 35 mg/kg): 18.8 ± 0.6 g; TV (X ± SD, mm^3) End ([1]; HM910 h-dose 35 mg/kg): 272.3 ± 483.1 mm^3; Bw (X ± SD, g) initial ([1]; HM910 h-dose 35 mg/kg): 17.3 ± 0.7 g; TV (X ± SD, mm^3) initial ([1]; HM910 h-dose 35 mg/kg): 46.9 ± 8.8 mm^3; anti-tumor effect on NCI-H929 xenografts in nude mice (in words) ([1]; high dose, 35 mg/kg): significant anti-tumor effect; anti-tumor effect on NCI-H929 xenografts in nude mice (in words) ([1]; low-dose group, 18 mg/kg): significant anti-tumor effect; HM 910 Plasma ([2]; SD rats, 20 mg/kg HM 910 i.v. bolus, 0.083 hr, 20 mg/kg): 56652 ng/mL and 31029 ng/mL and 37348 ng/mL and 56722 ng/mL and 45165 ng/mL and 21141 ng/mL; HM 910 Plasma ([2]; SD rats, 20 mg/kg HM 910 i.v. bolus, 0.25 hr, 20 mg/kg): 13690 ng/mL and 9484 ng/mL and 7271 ng/mL and 16294 ng/mL and 6761 ng/mL and 5639 ng/mL; HM 910 Plasma ([2]; SD rats, 20 mg/kg HM 910 i.v. bolus, 0.5 hr, 20 mg/kg): 2530 ng/mL and 1425 ng/mL and 1633 ng/mL and 4582 ng/mL and 1536 ng/mL and 1628 ng/mL; HM 910 Plasma ([2]; SD rats, 20 mg/kg HM 910 i.v. bolus, 0.75 hr, 20 mg/kg): 919 ng/mL and 574 ng/mL and 539 ng/mL and 1578 ng/mL and 617 ng/mL and 607 ng/mL; HM 910 Plasma ([2]; SD rats, 20 mg/kg HM 910 i.v. bolus, 1 hr, 20 mg/kg): 499 ng/mL and 259 ng/mL and 240 ng/mL (2×) and 668 ng/mL and 256 ng/mL; HM 910 Plasma ([2]; SD rats, 20 mg/kg HM 910 i.v. bolus, 1.5 hr, 20 mg/kg): 97.2 ng/mL and 78.0 ng/mL and 45.2 ng/mL and 162 ng/mL and 59.0 ng/mL and 96.4 ng/mL; HM 910 Plasma ([2]; SD rats, 20 mg/kg HM 910 i.v. bolus, 2 hr, 20 mg/kg): 18.3 ng/mL and 25.7 ng/mL and 51.5 ng/mL and 39.5 ng/mL and 20.8 ng/mL and 53.7 ng/mL; HM 910 Plasma [2, 5]: 28.2 ng/mL and 17.2 ng/mL and 18.4 ng/mL and 11.0 ng/mL; HM 910 Plasma (ng/mL) [2, 5]: BLQ; HM 910 Plasma (ng/mL) ([2]; SD rats, 20 mg/kg HM 910 i.v. bolus, 3 hr): BLQ; HM 910 Plasma (ng/mL) ([2]; SD rats, 20 mg/kg HM 910 i.v. bolus, 4 hr): BLQ; Fate of the tested drug after injection into the rats ([2]; SD rats, 20 mg/kg i.v. bolus): degraded and the releases camptothecin; concentration at 0.083 h ([2]; both sexes, Sprague-Dawley (SD), rat, plasma, iv, 20 mg/kg, 20 mg/kg HM 910 i.v. bolus, 0.083 hr, mean of rats): 41300 ng/mL; concentration at 0.25 h ([2]; both sexes, Sprague-Dawley (SD), rat, plasma, iv, 20 mg/kg, 20 mg/kg HM 910 i.v. bolus, 0.25 hr, mean of rats): 9860 ng/mL; concentration at 0.5 h ([2]; both sexes, Sprague-Dawley (SD), rat, plasma, iv, 20 mg/kg, 20 mg/kg HM 910 i.v. bolus, 0.5 hr, mean of rats): 2220 ng/mL; concentration at 0.75 h ([2]; both sexes, Sprague-Dawley (SD), rat, plasma, iv, 20 mg/kg, 20 mg/kg HM 910 i.v. bolus, 0.75 hr, mean of rats): 806 ng/mL; concentration at 1 h ([2]; both sexes, Sprague-Dawley (SD), rat, plasma, iv, 20 mg/kg, 20 mg/kg HM 910 i.v. bolus, 1 hr, mean of rats): 360 ng/mL; concentration at 1.5 h ([2]; both sexes, Sprague-Dawley (SD), rat, plasma, iv, 20 mg/kg, 20 mg/kg HM 910 i.v. bolus, 1.5 hr, mean of rats): 89.6 ng/mL; concentration at 2 h ([2]; both sexes, Sprague-Dawley (SD), rat, plasma, iv, 20 mg/kg, 20 mg/kg HM 910 i.v. bolus, 2 hr, mean of rats): 34.9 ng/mL; concentration at 2.5 h ([2]; both sexes, Sprague-Dawley (SD), rat, plasma, iv, 20 mg/kg, 20 mg/kg HM 910 i.v. bolus, 2.5 hr, mean of rats): 18.7 ng/mL; solubility [3]: > 10000 µg/mL; Resistance index [4]: 6
